According to US20190212340A1, “AN ELISA-LIKE ASSAY FOR QUANTIFYING ENZYMATIC ACTIVITIES OF MONO-ADP-RIBOSYLTRANSFERASES” (University of Southern California, priority 2016, published 2019):

Key:
[1] = biological target: T1, PARP15 (Homo sapiens, UniProt Q460N3); assay: MLISA inhibition of PARP15-catalyzed automodification (Experiment No. 2); format: biochemical; conditions: at concentrations up to 100 μM
T1 construct: The catalytic domains of PARP15 (residue 481-678); His6 (N); Factor Xa cleavage site (IEGR) (N); made in house; host or cells: E. coli BL21 (DE3)
T1 sequence (Q460N3 with tags, fused parts or gaps): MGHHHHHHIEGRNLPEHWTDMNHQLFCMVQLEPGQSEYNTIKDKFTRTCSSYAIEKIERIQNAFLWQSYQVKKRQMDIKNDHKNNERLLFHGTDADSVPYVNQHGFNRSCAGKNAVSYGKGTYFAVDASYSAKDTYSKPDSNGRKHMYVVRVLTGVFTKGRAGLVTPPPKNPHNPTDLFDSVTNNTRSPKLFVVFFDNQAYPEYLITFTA

[2] = biological target: T2, PARP15 (Homo sapiens, UniProt Q460N3); conditions: Karlberg et al., J. Biol. Chem. 2015; read-out: Km value of PARP15 reported previously; cited from earlier work
T2 sequence (Q460N3 1-678): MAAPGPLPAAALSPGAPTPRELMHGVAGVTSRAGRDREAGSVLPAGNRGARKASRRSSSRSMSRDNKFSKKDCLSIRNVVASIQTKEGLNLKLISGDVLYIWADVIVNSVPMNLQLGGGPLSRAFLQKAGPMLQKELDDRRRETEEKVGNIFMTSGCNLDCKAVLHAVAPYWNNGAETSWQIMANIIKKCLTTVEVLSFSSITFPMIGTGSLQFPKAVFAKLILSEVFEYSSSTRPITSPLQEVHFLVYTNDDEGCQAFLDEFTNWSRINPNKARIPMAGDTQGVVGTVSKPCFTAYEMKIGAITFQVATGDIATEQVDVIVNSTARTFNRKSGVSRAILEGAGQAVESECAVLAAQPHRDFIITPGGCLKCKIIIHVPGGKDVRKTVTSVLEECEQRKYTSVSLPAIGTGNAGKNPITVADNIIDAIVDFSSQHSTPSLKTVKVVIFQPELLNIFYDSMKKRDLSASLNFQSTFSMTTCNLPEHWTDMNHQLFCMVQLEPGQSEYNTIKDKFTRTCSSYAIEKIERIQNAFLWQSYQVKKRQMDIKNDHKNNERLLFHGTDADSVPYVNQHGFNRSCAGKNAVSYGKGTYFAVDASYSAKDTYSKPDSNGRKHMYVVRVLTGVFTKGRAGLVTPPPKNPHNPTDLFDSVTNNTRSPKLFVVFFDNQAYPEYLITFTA

[3] = biological target: T1, PARP15; assay: M2-based ELISA plate inhibition assay, PARP15 (Experiment No. 1); format: biochemical; conditions: 500 nM PARP15, 500 μM NAD+, inhibitors at 1, 10 and 100 μM, 2 h
Experimental: The general scheme of ELISA assay is illustrated in FIG. 1. PARP automodification reactions (100 μL) were conducted in 96-wells plate together with the coating process for 2 hours at room temperature. After five times of 200 μL PBST washes (0.1% v/v Tween 20 in PBS buffer, pH 7.4) per well the plates were blocked with 3% BSA dissolved in PBS buffer for 2 hours under room temperature followed by five washes of 200 μL PBST per well. The plates were incubated for 1 hour upon addition of 100 μL of 0.1 μM Macrodomain 2 and then washed five times with 200 μL PBST per well. […] The fluorescence signal was developed by addition of 75 μL QuantaBlu Fluorogenic Peroxidase Substrate and recorded by Synergy H1 Multi-Mode Reader (BioTek, VT). Kinetic parameters were calculated using nonlinear regression Michaelis-Menten model using GraphPad Prism (GraphPad Software). […]
96-well ELISA plates were coated with reactions in triplicates consisting of PARP enzymes (PARP14: 1 μM; PARP15: 500 nM) with various inhibitors at different concentrations (1, 10 and 100 μM) in addition to 500 μM of NAD^+ in Reaction Buffer (50 mM Tris-HCl, pH 7.4, 2 mM dTT). […] To control for any potential inhibition activity related to DMSO, wells containing 1% DMSO were analyzed in triplicates alongside with no inhibitor control wells and 100 μM control inhibitor wells.

| SMILES | inhibition effects on PARP15 activity [1] | other results |
| --- | --- | --- |
| Nc1ncnc2[nH]cnc12 [Adenine] | no significant inhibition effects | – |
| CN(C)c1ccc(O)c2c1C[C@H]1C[C@H]3[C@H](N(C)C)C(O)=C(C(N)=O)C(=O)[C@@]3(O)C(O)=C1C2=O [Minocin] | no significant inhibition effects | – |
| NC(=O)c1ccc[n+]([C@@H]2O[C@H](COP(=O)([O-])OP(=O)(O)OC[C@H]3O[C@@H](n4cnc5c(N)ncnc54)[C@H](O)[C@@H]3O)[C@@H](O)[C@H]2O)c1 [NAD^+, Nicotinamide adenine dinucleotide] | – | Km [2]: 5.8 ± 1.9 µM |
| O=C(c1cc(Cc2n[nH]c(=O)c3ccccc23)ccc1F)N1CCN(C(=O)C2CC2)CC1 [Olaparib] | – | inhibition of PARP15 (fluorescence intensity) [3]: better inhibitory effect at 100 μM but it is less potent comparing to other inhibitor |
| O=c1[nH]c(-c2ccc(C(F)(F)F)cc2)nc2c1CSCC2 [XAV939] | no significant inhibition effects | – |
